Measurements reported in patent publication US20250177367A1, “COMBINATION THERAPIES FOR MODULATION OF LIPID PRODUCTION” (Ohio State Innovation Foundation, priority 2022, published 2025).
“Also recorded” adds a separate entry of the source.

Assays:
H1299 and U87 cells = test: Ammonia, glutamate and α-KG levels after GPNA or CB-839; assay type: cell-based; conditions: for levels of glutamate, ammonia, and α-KG in cells and in cell culture media: GPNA 5 mM or CB-839 100 nM, 12 hr; for glutamine consumption: H1299 and U87 cells
Description: The results are presented as mean±SEM (n=3). H1299 or U87 cells were cultured in RMPI 1640 or DMEM medium supplemented with 5% FBS for 24 hr. Cells then were washed with PBS once and treated with/without GPNA (5 mM) or CB-839 (100 nM) in the presence of glutamine (4 mM) and glucose (5 mM) under the fresh serum-free RMPI 1640 or DMEM medium for 12 hr before analysis. Cell culture conditions prior to treatment are the same for the subsequent panels unless otherwise stated.
Analysis of Metabolites in Cell Culture Medium. Metabolite levels in culture medium, including glucose, glutamine, lactate, glutamate, and NH4+, were measured using the Nova Bioprofile 100 Plus Bioanalyzer (Nova Biomedical). H1299 (4×105) or U87 (3×105) cells were seeded in 60 mm dish for 24 hr. After the cells were washed with PBS, they were switched to 2.5 ml serum-free medium with glucose (5 mM) and glutamine (4 mM) for 12 hr. The culture or control media (without cultured cells) were centrifuged at 12,000 rpm for 1 min and run on the bioanalyzer. Cell numbers were determined by using a hemocytometer after trypan blue staining. Consumption of glucose and glutamine or production of lactate, glutamate, and NH4+ under each experimental condition was calculated by subtracting their levels in control medium and normalizing to cell numbers.
(§1) Measures of Ammonia Levels in Tissues, Cells and bound to SCAP. To measure ammonia levels in tumors and normal tissues, 10 mg of tissues were collected and lysed through homogenization on ice in the ammonia assay buffer (100 l) from the commercial kit. The lysates were centrifuged at 20,000×g for 5 min at 4° C. and the ammonia levels in the supernatants were measured by the ammonia assay kit following the manufacturer's instructions (#ab83360, Abcam). For measurement of SCAP-bound ammonia, a total of 1.3×10^7 HEK293T cells was seeded in 15 cm dishes for 24 hr. The cells were transfected with GFP, GFP-SCAP wild-type, or D428A mutant together with myc-Insig1 plasmids for 24 hr, and then washed with PBS, followed by addition of fresh DMEM medium containing glucose (5 mM) and NH4Cl (4 mM) for 2 hr in the absence of glutamine. […]

[1] = test system: H1299 cells-derived xenograft; test: H1299-derived xenograft mouse model treated with CB-839; assay type: in vivo, mice; conditions: CB-839 30 mg/kg, i.p., twice per day for 3 days
Description: The treatment started when the tumor size reached 200 mm^3. […] Scale bars, 50 m. The expression levels were quantified by using ImageJ to analyze 4 images per tumor and 3 tumors in each group.
as §1

SREBP activation = test: Western blot of GBM30 cells treated with CB-839 with glutamine, glutamate or NH4Cl; assay type: cell-based, human; conditions: 12 hr
Description: (§2) Western Blot. Cells were lysed with RIPA buffer containing a protease inhibitor cocktail and phosphatase inhibitors. The proteins were separated on 12% SDS-PAGE, and transferred onto an ECL nitrocellulose membrane (#1620112, Bio-Rad). After blocking for 1.5 hr in 5% non-fat dried milk diluted by Tris-buffered saline containing 0.1% Tween 20, the membranes were incubated with various primary antibodies, followed by appropriate secondary antibodies conjugated to horseradish peroxidase.

SREBP-1/2 cleavage = test: Western blot of SREBP cleavage and FASN/SCD1 expression in GBM cells; assay type: cell-based, human; conditions: for pimozide-stimulated SREBP-1 activation, FASN/SCD1 and ASCT2 expression: with pimozide 5 μM, 24 hr, GBM30, U373 or U251
Description: P, precursor of SREBP; N, N-terminus of SREBP-1. C, C-terminus of SREBP-2.
4 mM glutamine and […] pyruvate.
as §2

U251 cells [2] = test: Confocal imaging of mitochondria and ROS (MitoTracker / CellROX Deep Red); assay type: cell-based; conditions: GSH 3 mM
Description: ROS levels were quantified in more than 100 cells (mean±SEM). Sp<0.0001. Scale bar, 10 μm.
DON (10 μM) or CB-839 (I00 nM) in combination as in (A) in the presence or absence of PA (palmitate, 20 μM) and OA (oleic acid, 20 μM) and cholesterol (3 μg/ml) for 24 hr.

U251 cells [3] = test: Micrographs of U251 cell growth; assay type: cell-based; conditions: GSH 3 mM, 48 hr
Description: DON (10 μM) or CB-839 (100 nM) alone or in combination as in (A) in the presence or absence of GSH (3 mM) for 48 hr.
Micrographs show the growth of U251 cells treated with/without pimozide (2, 3 μM), perphenazine (3, 5 μM), GPNA (1 mM), or CB-839 (100 nM). Cells were cultured in 5% FBS full medium for 24 hr. Cells were then washed with PBS twice and treated in 1% FBS with the presence of 5 mM Glucose, 4 mM Glutamine and 1 mM Pyruvate in fresh serum-free medium for 48 hr. Scale bar, 100 μm.

SREBP-1 and -2 cleavage = test: SREBP activation by metabolites in H1299 or U87 cells (western blot, IF); assay type: cell-based; conditions: for SREBP-1 translocation into the nucleus: in the presence of glucose, without glutamine, 12 hr
Description: FIG. 1C show the western blot analysis of whole lysates from H1299 or U87 cells after NH4Cl stimulation at the indicated doses for 12 hr. in the presence of glucose (5 mM) under serum-free culture conditions.
Nuclei were stained with DAPI (blue). Scale bars, 10 m. The nuclear intensity of SREBP-1 was quantified over 30 cells by ImageJ (mean±SEM) and shown below. Significance was determined by unpaired Student's t test. *p<0.05, ^sp<0.001, #p<0.0001; N.S. not significant.
as §2, with “The proteins were separated on 12% SDS-PAGE, and transferred onto an ECL nitrocellulose membrane (#1620112, Bio-Rad).” left out
Immunofluorescence. Cells grown on coverslips were washed with PBS twice and fixed with 4% formaldehyde for 15 min, then permeabilized with 0.1% Triton X-100/PBS for 5 min and blocked by 3% bovine serum albumin for 30 min at room temperature. […] Cells were washed three times with PBS in a dark chamber.

ASCT2 = ASCT2 expression (western blot of membrane extracts, immunofluorescence); assay type: cell-based, human; conditions: pimozide 5 μM with cholesterol 3 μg/ml, 24 hr
From the text: Transferring receptor-1(CD71), an integral membrane protein that mediates the uptake of transferrin-iron complexes, was used as a membrane loading control for ASCT2. […] Nuclei were stained with DAPI (blue).

GBM30-derived xenograft [4] = conditions: mouse, in vivo
Description: (§3) Mice were implanted with 3×10^6 GBM30 cells in flank. When tumor volume reached to 80 mm^3, pimozide (15, 30, 60 mg/kg/day) or vehicles were administered to mice via intraperitoneal injection for 14 days.
(§4) GBM30 cells were implanted in mice to form tumor same as FIG. 12A. Mice were started treatment when tumor volume reached to ˜80 mm^3 by pimozide (15 mg/kg/day) and fatostatin (25 mg/kg/day) alone or combination for 16 days. The tumors were isolated from mice at day 14 post-treatment and imaged. Data are shown as mean±SD (n=6).
(§5) Data are shown as mean±SD(n=6). Significance was determined by one-way ANOVA with Dunnett's multiple comparisons adjustment. *p<0.002. Tumor diameter was measured using vernier caliper and calculated as V=L×S×S/2 (S refers to short diameter, L means long diameter, V is tumor volume).
(§6) Mice were implanted with 3×10^6 GBM30 cells in flank. When tumor volume reached to ˜80 mm^3, pimozide (15 mg/kg/day), GPNA (50 mg/kg/day), DON (0.2 mg/kg/day), or CB-839 (25 mg/kg/day) alone or in combination were administered to mice via intraperitoneal injection for 14 days.
(§7) Data are shown as mean±SEM (n=6). Significance was determined by one-way ANOVA with Dunnett's multiple comparisons adjustment. *p<0.002.

[5] = test system: normal human astrocytes (NHA); test: Effect of PMZ on normal human astrocytes; assay type: cell-based; conditions: doses up to 10 μM, 6 days
Description: Statistical significance was analyzed by one-way ANOVA.

GBM30-derived xenograft [6] = test: GBM30-derived flank xenograft model; conditions: 60 mg/kg dose
Description: as §3, §4, §5, §6, §7

O=C(Cc1cccc(OC(F)(F)F)c1)Nc1ccc(CCCCc2nnc(NC(=O)Cc3ccccn3)s2)nn1 [CB-839, telaglenastat]
levels of glutamate, ammonia, and α-KG in cells and in cell culture media (H1299 and U87 cells): dramatically reduced | glutamine consumption (H1299 and U87 cells): significant reduction | ammonia levels in tumor tissues [1]: reduction | SREBP-1 levels in tumors (IHC) ([1]; vs vehicle): significantly reduced | SREBP activation (SREBP activation; CB-839 200 nM): SREBP activation inhibited by CB-839 | pimozide-stimulated SREBP-1 activation, FASN/SCD1 and ASCT2 expression (SREBP-1/2 cleavage): completely abolished

Cl.N[C@@H](CCC(=O)Nc1ccc([N+](=O)[O-])cc1)C(=O)O [GPNA, gamma-L-Glutamyl-p-nitroanilide Hydrochloride]
levels of glutamate, ammonia, and α-KG in cells and in cell culture media (H1299 and U87 cells): dramatically reduced | glutamine consumption (H1299 and U87 cells): significant reduction | pimozide-stimulated SREBP-1 activation, FASN/SCD1 and ASCT2 expression (SREBP-1/2 cleavage): completely abolished

N[C@@H](CCC(=O)N[C@@H](CS)C(=O)NCC(=O)O)C(=O)O [GSH]
combination treatment-elevated ROS level in mitochondria (U251 cells [2]): reduced the combination treatment-elevated ROS level in mitochondria | combination-induced cell death (U251 cells [3]): dramatically rescued the combination-induced cell death

N [ammonia]
restoration of SREBP activation and FASN/SCD1 expression inhibited by CB-839 (SREBP activation; 4 mM): strongly restore SREBP activation | SREBP-1 and -2 cleavage, FASN and SCD1 expression (SREBP-1 and -2 cleavage; in the presence of glucose 5 mM, NH4Cl, serum-free): induced SREBP-1 and -2 cleavage; also recorded: dose- and time-dependent | SREBP-1 translocation into the nucleus (SREBP-1 and -2 cleavage): markedly stimulated SREBP-1 translocation into the nucleus | restoration of pimozide-stimulated SREBP-1 activation, FASN/SCD1 and ASCT2 expression (SREBP-1/2 cleavage; NH3·H2O 4 mM, after glutamine absence, GPNA or CB-839): fully restored

CC(C)CCC[C@@H](C)[C@H]1CC[C@H]2[C@@H]3CC=C4C[C@@H](O)CC[C@]4(C)[C@H]3CC[C@]12C [cholesterol]
pimozide treatment-elevated ASCT2 expression (ASCT2): suppressed

N[C@@H](CCC(=O)O)C(=O)[O-].O.[Na+] [glutamate, L-Glutamic acid monosodium salt monohydrate]
SREBP-1 translocation into the nucleus (SREBP-1 and -2 cleavage): failed to do so

C[C@H](O)C(=O)[O-].[Na+] [lactate, sodium L-lactate]
SREBP-1 translocation into the nucleus (SREBP-1 and -2 cleavage): failed to do so

O=c1[nH]c2ccccc2n1C1CCN(CCCC(c2ccc(F)cc2)c2ccc(F)cc2)CC1 [pimozide]
toxicity in mice (GBM30-derived xenograft [4]): toxic | toxic effects on normal human astrocytes [5]: no toxic effects | time of treatment until mice died (GBM30-derived xenograft [6]): 6 to 8 days

O=C([O-])CCC(=O)C(=O)[O-].[Na+].[Na+] [α-KG, α-Ketoglutaric acid sodium salt]
SREBP-1 translocation into the nucleus (SREBP-1 and -2 cleavage): failed to do so
